Experimental data reported in patent US6538037B2, “Methods for preparation and use of 1α,24(S)-dihydroxyvitamin D2” (Bone Care International, Inc., priority 1991, dated 2003).

Legend:
vitamin D receptor (VDR) = test: Vitamin D-inducible growth hormone production in transfected COS-1 cells; type: cell-based, Green monkey; settings: for Total GH Production: averages of duplicate determinations
Experimental: The biological activity in vitro of chemically synthesized 1α,24(S)-(OH)2D2 and 1α,24(R)-(OH)2D2 was measured using a vitamin D-dependent transcriptional activation model system in which a vitamin D receptor (VDR)-expressing plasmid pSG5-hVDR1/3 and a plasmid p(CT4)^4TKGH containing a Growth Hormone (GH)-gene, under the control of a vitamin D-responsive element (VDRE) were co-transfected into Green monkey kidney, COS-1 cells. DNA's for these two vectors were supplied by Dr. Mark Haussler, Department of Biochemistry, University of Arizona, Tucson, Ariz.
Transfected cells were incubated with vitamin D metabolites and growth hormone production was measured.

bovine thymus VDR = target: T1, bovine thymus VDR (Bos taurus, UniProt Q28037); test: Radioreceptor assay, displacement of 3H-1α,25-(OH)2D3 tracer from bovine thymus VDR; type: binding; settings: for binding affinity to VDR compared with reference standard (in words): environmentally exposed compounds; for ED50 (amount of material to displace 50% of the bound 3H-1α,25-dihydroxyvitamin D3): environmentally exposed crystalline and powdered material, FIG. 5
T1 construct: commercially available reagents of bovine thymus VDR; purchased Incstar (Stillwater, Minn.); host or cells: bovine thymus
T1 sequence (Q28037 1-426): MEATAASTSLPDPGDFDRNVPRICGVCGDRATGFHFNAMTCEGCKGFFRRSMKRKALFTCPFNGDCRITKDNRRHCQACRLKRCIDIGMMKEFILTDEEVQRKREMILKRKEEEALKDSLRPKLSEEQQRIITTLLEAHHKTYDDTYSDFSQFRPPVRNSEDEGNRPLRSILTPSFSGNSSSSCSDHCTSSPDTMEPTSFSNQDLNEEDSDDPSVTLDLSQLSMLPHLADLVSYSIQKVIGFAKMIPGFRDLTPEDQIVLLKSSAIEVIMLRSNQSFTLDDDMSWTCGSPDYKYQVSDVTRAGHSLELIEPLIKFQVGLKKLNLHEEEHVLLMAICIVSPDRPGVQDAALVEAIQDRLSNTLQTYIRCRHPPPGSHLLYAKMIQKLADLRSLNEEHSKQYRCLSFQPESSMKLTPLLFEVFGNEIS
Experimental: Purified 1α,24(S)-(OH)2D2 was quantitated by photodiode array spectrophotometry and assayed in the radioreceptor assay.
The purified 1α,24(R)-(OH)2D2 and 1α,24(S)-(OH)2D2 epimers were quantitated by ultraviolet spectroscopy.
The binding affinities of the environmentally exposed compounds, crystalline 1α,24-dihydroxyvitamin D2 and powdered 1α,24-dihydroxyvitamin D2, to the vitamin D receptor (VDR) were assessed using methods known in the art, as described, e.g., in Example 6. […] The percent bound versus amount of compound in pg/tube are graphed in FIG. 5.

Hep 3B cells = test: Metabolism of 1α-OH-D2 in Hep 3B cells; type: in vitro ADME, human; settings: Experiment 2, substrate 1α-OH-D2 10 μM, photodiode array spectrophotometry
Experimental: Substantially pure 1α-(OH)D2 was obtained from Bone Care International, Inc. of Madison, Wis. The 1α-(OH)D2 was cultured for 48 hours with cells derived from a human hepatoma, Hep 3B, in medium devoid of fetal calf serum using known methods in the art.
Lipid extracts of the combined medium and cells were generated by known methods in the art and were subjected to high pressure liquid chromatography (HPLC) on Zorbax-S1L developed with hexane/isopropano/methanol (91:7:2). The putative 1α,24(?)-(OH)2D2 metabolite eluted between the parent 1α-(OH)D2 and standard 1α,25-(OH)2D2 (also obtained from Bone Care International, Inc. of Madison, Wis.). (As used herein, the term “1α,24(?)-(OH)2D2” is meant to indicate that the epimeric form has not been identified.) The 1α,24(?)-(OH)2D2 was further purified by this HPLC system before the metabolite's identification was undertaken using mass spectrometry analysis.
Hep 3B cells were incubated with 1α-OH-D2, as described above, at final concentrations of 1, 10, or 100 nM (Experiment 1), and 1 or 10 μM (Experiment 2) and 1α,24(S)-(OH)2D2 was extracted and purified. The 1α,24(S)-(OH)2D2 and 1α,25-(OH)2D2 metabolites were quantitated by recovered radiolabel (Experiment 1) or by photodiode array spectrophotometry (Experiment 2).

[1] = Blood metabolite levels in osteoporotic women administered 1α-OH-D2; type: in vivo, human
Experimental: An increase in the production of 1α,24(S)-(OH)2D2 relative to 1α,25-(OH)2D2 has also been observed by the present inventors in human females who received 1α-OH-D2 as part of an investigation of that drug for the treatment of osteoporosis. Following either a single dose of 2 μg of 1α-OH-D2 or daily doses of 8 μg/day for one week, blood was collected and analyzed for the metabolites 1α,24(S)-(OH)2D2 and 1α,25-(OH)2D2. Lipid was extracted from the blood, and the metabolites were purified by HPLC using standard methods and quantified with the radioreceptor assay produced by Incstar (Stillwater, Minn.). One day after a single 2 μg dose, the level of 1α,24(S)-(OH)2D2 was undetectable with the 1α,25-(OH)2D2 level being approximately 11 pg/ml. In contrast, one day following the last dose of 8 μg, the level of 1α,24(S)-(OH)2D2 averaged 9 pg/mL with the 1α,25-(OH)2D2 level averaging 30 pg/mL.

[2] = cited from earlier work
[3] = Plasma metabolites in vitamin D-deficient rats; type: in vivo, rat; settings: for plasma metabolite after administration: oral or intraperitoneal, vitamin D-deficient rats, HPLC of plasma lipid extracts
Experimental: Vitamin D2 or 24-OH-D2 was administered (either oral or intraperitoneal supplementation) to vitamin D-deficient rats. Lipid extracts of the plasma were prepared and the metabolites purified by the method of Horst et al. (Horst, R. L., Koszewski, N.J. and Reinhardt, T. A., Biochem., 29:578-82 (1990)) described below for synthesyzing standard biological 1α,24-(OH)2D2.
Standard biological 1α,24-(OH)2D2 was synthesized in vitro from 24-OH-D2 by incubating 10 μg of 24-OH-D2 in flask containing 5 mL of 20% kidney homogenates made from vitamin D-deficient chicks. The product of this reaction was isolated by HPLC and identified by mass spectrometry.

[4] = Chemical stability testing, exposure to heat and light; type: physicochemical; settings: one week; for overall retention of the compound (remained intact): after heat and light; for share of UV absorbing material being 1α,24-dihydroxyvitamin D2 (HPLC): detection at 265 nm; for absorbence at 265 nm retained: specimens exposed to heat and light, reference standard in ethanol in a freezer
Experimental: Samples of approximately 5 mg of either crystalline or powdered 1α,24-dihydroxyvitamin D2 were each placed in a 5 mL volumetric flask. The flasks were exposed to identical environmental conditions of variations in heat and light. Heat and light are environmental parameters well-known to affect negatively the integrity of vitamin D compounds.
After one week's time, the contents of the flasks were visually inspected. The powdered specimen appeared to be slightly yellow in color compared to the crystalline specimen. Five mL of ethanol was added to each sample and each specimen was dissolved. These solutions were analyzed for ultraviolet absorbence from 200 to 320 nm. A reference standard 1α,24-dihydroxyvitamin D2 dissolved in ethanol at the same concentration and stored in a freezer for the identical time period was similarly analyzed.
The ethanol solutions of the crystalline and powdered 1α,24-dihydroxyvitamin D2 were also analyzed by high performance liquid chromatography (HPLC) under the following conditions: […]

## C=C1/C(=C\C=C2/CCC[C@]3(C)[C@@H]([C@H](C)/C=C/[C@](C)(O)C(C)C)CC[C@@H]23)C[C@@H](O)C[C@@H]1O [1α,24(R)-(OH)2D2, 1α,24(R)-dihydroxyvitamin D2]
Vitamin D receptor (VDR); inducer 5 × 10^−8 M
  Net vitamin D-inducible GH-production: 1138 ng/mL
  Total GH Production: 1182 ng/mL
Vitamin D receptor (VDR); inducer 10^−7 M
  Net vitamin D-inducible GH-production: 1256 ng/mL
  Total GH Production: 1300 ng/mL
Vitamin D receptor (VDR); inducer 10^−8 M
  Net vitamin D-inducible GH-production: 1056 ng/mL
  Total GH Production: 1100 ng/mL
Vitamin D receptor (VDR); inducer 10^−9 M
  Net vitamin D-inducible GH-production: 36 ng/mL
  Total GH Production: 80 ng/mL

## C=C1/C(=C\C=C2/CCC[C@]3(C)[C@@H]([C@H](C)/C=C/[C@H](C)C(C)(C)O)CC[C@@H]23)C[C@@H](O)C[C@@H]1O [1α,25-(OH)2D2, 1α,25-dihydroxyvitamin D2, reference compound]
Bovine thymus VDR; radioreceptor assay, Incstar kit
  half-maximal binding: 80 pg/mL
Hep 3B cells
  Rate of Production: 7.4 pmol per 10^6 cells/day
[1]; one day after a single 2 μg dose of 1α-OH-D2
  blood level of metabolite: approximately 11 pg/ml
[1]; one day following the last dose of 8 μg/day 1α-OH-D2 for one week
  blood level of metabolite (average): 0.03 ng/mL

## C=C1/C(=C\C=C2/CCC[C@]3(C)[C@@H]([C@H](C)/C=C/[C@H](C)C(C)C)CC[C@@H]23)C[C@@H](O)C[C@@H]1O [1α-(OH)D2, 1α-hydroxyvitamin D2]
[2]; dosages of 2.0 μg/day or higher
  bone mass in human osteoporotic patients: will reverse the loss of bone mass

## C=C1/C(=C\C=C2/CCC[C@]3(C)[C@@H]([C@H](C)CCCC(C)C)CC[C@@H]23)C[C@@H](O)C[C@@H]1O [1α-(OH)D3, 1α-hydroxyvitamin D3]
[2]; human, in vivo
  safely obtainable dosage levels: dosage levels of 2.0 μg/day or greater are not safely obtained

## C=C1CC[C@H](O)C/C1=C/C=C1\CCC[C@]2(C)[C@@H]([C@H](C)/C=C/C(C)(O)C(C)C)CC[C@@H]12 (stereo partly shown) [24-OH-D2, 24-hydroxyvitamin D2]
[3]
  plasma metabolite after administration: one metabolite isolated co-migrated on HPLC with the standard 1α,24-(OH)2D2

## C=C1CC[C@H](O)C/C1=C/C=C1\CCC[C@]2(C)[C@@H]([C@H](C)CCCC(C)(C)O)CC[C@@H]12 [25-OH-D3, 25-hydroxyvitamin D3, reference compound]
Vitamin D receptor (VDR); inducer 10^−5 M
  Net vitamin D-inducible GH-production: 731 ng/mL
  Total GH Production: 775 ng/mL
Vitamin D receptor (VDR); inducer 10^−6 M
  Net vitamin D-inducible GH-production: 1056 ng/mL
  Total GH Production: 1100 ng/mL
Vitamin D receptor (VDR); inducer 10^−7 M
  Net vitamin D-inducible GH-production: 201 ng/mL
  Total GH Production: 245 ng/mL

## C=C1C(=CC=C2CCCC3(C)C2CCC3C(C)C=CC(C)(O)C(C)C)CC(O)CC1O (stereo not drawn) [crystalline 1α,24-dihydroxyvitamin D2, 1α,24-dihydroxyvitamin D2]
Bovine thymus VDR
  binding affinity to VDR compared with reference standard (in words): approximately the same as that of a reference standard
Bovine thymus VDR; listed as crystalline material
  ED50 (amount of material to displace 50% of the bound 3H-1α,25-dihydroxyvitamin D3): about 10 pg/tube
[4]
  overall retention of the compound (remained intact): over 88%
  share of UV absorbing material being 1α,24-dihydroxyvitamin D2 (HPLC): 95%
[4]; listed as crystalline specimen
  retention of the structure, weight-based normalization of the HPLC peak area: 93%
  absorbence at 265 nm retained: 93%

## C=C1C(=CC=C2CCCC3(C)C2CCC3C(C)C=CC(C)(O)C(C)C)CC(O)CC1O (stereo not drawn) [powdered 1α,24-dihydroxyvitamin D2, 1α,24-dihydroxyvitamin D2]
Bovine thymus VDR
  binding affinity to VDR compared with reference standard (in words): considerably less
  ED50 (amount of material to displace 50% of the bound 3H-1α,25-dihydroxyvitamin D3): about 40 pg/tube
Bovine thymus VDR; powder form exposed to the same conditions
  binding activity relative to standard 1α,24-dihydroxyvitamin D2: less than 25%
[4]
  overall retention of the compound (remained intact): 35%
  share of UV absorbing material being 1α,24-dihydroxyvitamin D2 (HPLC): 78%
[4]; listed as powdered specimen
  retention of the structure, weight-based normalization of the HPLC peak area: 23%
  absorbence at 265 nm retained: 45%

## C=C1C(=CC=C2CCCC3(C)C2CCC3C(C)C=CC(C)(O)C(C)C)CC(O)CC1O (stereo not drawn) [reference standard, 1α,24-dihydroxyvitamin D2]
Bovine thymus VDR
  ED50 (amount of material to displace 50% of the bound 3H-1α,25-dihydroxyvitamin D3): about 10 pg/tube
[4]
  retention of the structure, weight-based normalization of the HPLC peak area: 100%
  share of UV absorbing material being 1α,24-dihydroxyvitamin D2 (HPLC): 96%
  absorbence at 265 nm retained: 100%

## C=C1CC[C@H](O)C/C1=C/C=C1\CCC[C@]2(C)[C@@H]([C@H](C)/C=C/[C@H](C)C(C)C)CC[C@@H]12 [vitamin D2]
[3]
  plasma metabolite after administration: one metabolite isolated co-migrated on HPLC with the standard 1α,24-(OH)2D2

## C=C1CC[C@H](O)C/C1=C/C=C1\CCC[C@]2(C)[C@@H]([C@H](C)CCCC(C)C)CC[C@@H]12 [vitamin D3]
[3]; comparable rats
  24-hydroxylated metabolite in plasma after administration: no detectable 24-OH-D3
